Reference: BindingDB's records for patent US10377742 (Rigel Pharmaceuticals, 2019)

Biological target: 5'-AMP-activated protein kinase catalytic subunit alpha-2 (Homo sapiens, UniProt P54646)
Test: enzyme-linked immunosorbent assay
Experimental: Compounds were assayed for their ability to activate AMPK using an enzyme-linked immunosorbent assay. Reagents and procedures for measuring AMPK activation are well known and kits for AMPK activation assays are commercially available.

Chain of 5'-AMP-activated protein kinase catalytic subunit alpha-2 (P54646 whole entry): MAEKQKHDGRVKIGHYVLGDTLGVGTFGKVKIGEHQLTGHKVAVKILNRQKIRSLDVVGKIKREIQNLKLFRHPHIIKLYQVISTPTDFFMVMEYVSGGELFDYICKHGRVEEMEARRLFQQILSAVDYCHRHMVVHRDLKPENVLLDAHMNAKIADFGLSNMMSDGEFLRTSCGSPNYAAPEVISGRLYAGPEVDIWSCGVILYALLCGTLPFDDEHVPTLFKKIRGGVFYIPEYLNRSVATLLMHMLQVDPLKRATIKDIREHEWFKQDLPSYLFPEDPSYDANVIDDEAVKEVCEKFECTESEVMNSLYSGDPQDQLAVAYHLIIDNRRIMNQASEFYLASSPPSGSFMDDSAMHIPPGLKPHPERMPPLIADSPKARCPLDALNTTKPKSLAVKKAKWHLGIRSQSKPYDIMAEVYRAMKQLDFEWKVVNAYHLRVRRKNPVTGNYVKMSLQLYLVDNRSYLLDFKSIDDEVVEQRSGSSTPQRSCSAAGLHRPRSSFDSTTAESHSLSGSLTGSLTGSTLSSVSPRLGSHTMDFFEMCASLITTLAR

| EC50 [nM] | SMILES |
| --- | --- |
| > 1000 | O=C(Nc1ccccc1-c1ccccc1)c1ccc(C(=O)N2CCN(Cc3ccc(F)cc3)CC2)cn1 [US10377742, Compound 19] |
| > 1000 | O=C(Nc1ccc(-c2ccc([N+](=O)[O-])cc2)cc1)c1ccc(C(=O)N2CCN(Cc3ccc(F)cc3)CC2)cn1 [US10377742, Compound 20] |
